# According to patent US6361764B1, “Insoluble s-triazine derivatives and their use as UV filters” (Societe L'Oreal S.A., priority 1996, dated 2002):
# How the values were obtained:
# [1] = solid UV absorption spectrum of a film of the screened compound dispersed in white petroleum jelly; format: physicochemical; conditions: 5 g screened compound per 100 g petroleum jelly "Codex 236", film 10 Am thick, Shimadzu UV 2101 PC spectrophotometer
# Description: This 2,4,6-tris[(3′-benzotriazol-2-yl-2′-hydroxy-5′-methyl)phenylamino]-s-triazine was screened at 50 μm through a screen of stainless steel-gauze stainless steel assembly. Next, it was dispersed in white petroleum jelly sold under the trade name “Codex 236” by the company Sarega at the melting point of the petroleum jelly and in a proportion of 5 g of screened 2,4,6-tris[(3′-benzotriazol-2-yl-2′-hydroxy-5′-methyl) phenylamino]-s-triazine per 100 g of petroleum jelly. This mixture was then treated with ultrasound in order to ensure homogeneous dispersion. A film 10 Am thick was analysed.
# The solid UV absorption spectrum was obtained using a Shimadzu UV 2101 PC spectrophotometer and is represented in FIG. 1.
# The solid UV absorption spectrum of this 2,4,6-tris[(3′-benzotriazol-2-yl-2′-hydroxy-5′-tert-octyl)phenylamino]-s-triazine was measured according to the same procedure as in Example 1. This spectrum is represented in FIG. 2.
# UV absorption in CHCl3 = format: physicochemical
SMILES,solid UV absorption spectrum: range absorbed [1],UV λmax (UV absorption in CHCl3; CHCl3) [nm],"UV εmax (UV absorption in CHCl3; CHCl3, at λmax)",melting point [°C]
"CC(C)(C)CC(C)(C)c1cc(Nc2nc(Nc3cc(C(C)(C)CC(C)(C)C)cc(-n4nc5ccccc5n4)c3O)nc(Nc3cc(C(C)(C)CC(C)(C)C)cc(-n4nc5ccccc5n4)c3O)n2)c(O)c(-n2nc3ccccc3n2)c1 [Example 2, 2,4,6-tris[(3′-benzotriazol-2-yl-2′-hydroxy-5′-tert-octyl)phenylaminol]-s-triazine]",absorbs throughout the UV radiation range (280-400 nm),326,"68,600",
"Cc1cc(Nc2nc(Nc3cc(C)cc(-n4nc5ccccc5n4)c3O)nc(Nc3cc(C)cc(-n4nc5ccccc5n4)c3O)n2)c(O)c(-n2nc3ccccc3n2)c1 [Example 1, 2,4,6-tris[(3′-benzotriazol-2-yl-2′-hydroxy-5′-methyl)phenylamino]-s-triazine]",absorbs throughout the UV radiation range (280-400 nm),,,> 270
